Our source for the IC50 values is patent US20180141962A1, “AZACARBAZOLE BTK INHIBITORS” (MERCK SHARP & DOHME CORP., priority 2015, published 2018).

The target in the first assay is T1, BTK enzyme (recombinant full-length BTK, hBTK) (Homo sapiens, UniProt Q06187).
T1 construct: recombinant protein from baculovirus-transfected Sf9 cells: full-length BTK, 6HIS-tag cleaved; 6HIS (cleaved yes); made in house; host or cells: baculovirus-transfected Sf9 cells
T1 sequence (Q06187 whole entry): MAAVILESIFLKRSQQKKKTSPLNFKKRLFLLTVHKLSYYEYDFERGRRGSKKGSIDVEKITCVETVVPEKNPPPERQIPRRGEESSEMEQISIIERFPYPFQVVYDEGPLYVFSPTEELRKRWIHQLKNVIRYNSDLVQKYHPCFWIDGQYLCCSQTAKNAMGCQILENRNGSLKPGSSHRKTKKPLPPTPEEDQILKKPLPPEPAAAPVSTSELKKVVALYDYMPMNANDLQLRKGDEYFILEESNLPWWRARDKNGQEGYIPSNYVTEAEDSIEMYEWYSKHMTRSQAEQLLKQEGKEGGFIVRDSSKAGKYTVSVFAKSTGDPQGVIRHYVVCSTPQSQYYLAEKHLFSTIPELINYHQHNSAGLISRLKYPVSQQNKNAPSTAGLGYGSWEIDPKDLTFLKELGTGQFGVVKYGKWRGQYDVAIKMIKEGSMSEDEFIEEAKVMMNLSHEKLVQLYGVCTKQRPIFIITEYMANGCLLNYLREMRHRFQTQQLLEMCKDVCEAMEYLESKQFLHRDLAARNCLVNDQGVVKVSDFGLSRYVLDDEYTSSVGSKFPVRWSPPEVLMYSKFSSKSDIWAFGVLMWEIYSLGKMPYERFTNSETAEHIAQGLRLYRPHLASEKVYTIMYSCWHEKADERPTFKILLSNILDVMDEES
The assay is described as follows: Btk enzyme activity assay, LANCE TR-FRET. The note with it: 50 pM hBTK, 2 μM biotin-A5-peptide, 25 μM ATP; 60 minute compound & enzyme incubation; 120 minutes reaction; read-out: BTK binding potency IC50. The format is biochemical. How it is done:
Btk Enzyme Activity Assay Methods
BTK enzymatic activity was determined with the LANCE (Lanthanide Chelate Excite) TR-FRET (lime-resolved fluorescence resonance energy transfer) assay. […] Phosphorylation reactions were allowed to proceed for 120 minutes. […] After 60 minutes incubation with detection reagents, reaction plates were read on a PerkinElmer EnVision plate reader using standard TR-FRET protocol. Briefly, excitation of donor molecules (Eu-chelate:anti-phospho-antibody) with a laser light source at 337 nm produces energy that can be transferred to Dylight-650 acceptor molecules if this donor:acceptor pair is within close proximity. Fluorescence intensity at both 665 nm (acceptor) and 615 nm (donor) are measured and a TR-FRET ratio calculated for each well (acceptor intensity/donor intensity). IC50 values were determined by 4 parameter robust fit of TR-FRET ratio values vs. (Log10) compound concentrations.
For `NC(=O)c1cnc(N2CCC[C@@]3(CCCN(c4ccc(F)cc4)C3=O)C2)c2c1[nH]c1ccccc12` [Example 1, (R)-1-(8-(4-fluorophenyl)-7-oxo-2,8-diazaspiro[5.5]undecan-2-yl)-5H-pyrido[4,3-b]indole-4-carboxamide], the IC50 stood at 149 nM.
As for `NC(=O)c1cnc(N2CCC[C@@]3(CCCN(c4ccc(F)cc4)C3=O)C2)c2c1[nH]c1ccc(F)cc12` [Example 6, 8-fluoro-1-[(6R)-8-(4-fluorophenyl)-7-oxo-2,8-diazaspiro[5.5]undec-2-yl]-5H-pyrido[4,3-b]indole-4-carboxamide], the IC50 was found to be 853 nM.
On the same count and under the same terms, the result for `CC(C)c1ccc(N2CCCC3(CCCN(c4ncc(C(N)=O)c5[nH]c6ccccc6c45)C3)C2=O)cc1` (stereo not drawn) [Example 5, 1-{8-[4-(1-methylethyl)phenyl]-7-oxo-2,8-diazaspiro[5.5]undec-2-yl}-5H-pyrido[4,3-b]indole-4-carboxamide] reads 492 nM; that for `NC(=O)c1cnc(N2CCC[C@]3(C2)C(=O)NC[C@@H]3c2ccccc2)c2c1[nH]c1ccccc12` (single isomer, unassigned) [Example 89, 1-[(trans)-1-oxo-4-phenyl-2,7-diazaspiro[4.5]dec-7-yl]-5H-pyrido[4,3-b]indole-4-carboxamide], 669 nM; that for `CN1CC[C@@]2(CCCN(c3ncc(C(N)=O)c4[nH]c5cc(C6CCC(CC(C)(C)O)CC6)ccc5c34)C2)C1=O` (stereo partly drawn) [Example 82, 7-[4-(2-hydroxy-2-methylpropyl)cyclohexyl]-1-[(5R)-2-methyl-1-oxo-2,7-diazaspiro[4.5]dec-7-yl]-5H-pyrido[4,3-b]indole-4-carboxamide], 2.9 nM.
The same measure, in the same setting: the result for `CN1CC(CO)C2(CCCN(c3ncc(C(N)=O)c4[nH]c5ccccc5c34)C2)C1=O` (single isomer, unassigned) [Example 90, cis-1-(4-(hydroxymethyl)-2-methyl-1-oxo-2,7-diazaspiro[4.5]decan-7-yl)-5H-pyrido[4,3-b]indole-4-carboxamide] reads 115 nM; that for `NC(=O)c1cnc(N2CCCC3(CCNC3=O)C2)c2c1[nH]c1ccc(C(O)CO)cc12` (stereo not drawn) [Example 65, 8-(1,2-dihydroxyethyl)-1-(1-oxo-2,7-diazaspiro[4.5]dec-7-yl)-5H-pyrido[4,3-b]indole-4-carboxamide], 16.5 nM.
The same measure, in the same setting: the result for `CCN1CCC(c2ccc3[nH]c4c(C(N)=O)cnc(N5CCCC6(CCNC6=O)C5)c4c3c2)CC1` (stereo not drawn) [Example 49, 8-(1-ethylpiperidin-4-yl)-1-(1-oxo-2,7-diazaspiro[4.5]dec-7-yl)-5H-pyrido[4,3-b]indole-4-carboxamide] reads 87.3 nM; that for `NC(=O)c1cnc(N2CCC[C@]3(C2)C(=O)NC[C@H]3O)c2c1[nH]c1ccccc12` (stereo in doubt) [Example 17, 1-[(4S,5R)-4-hydroxy-1-oxo-2,7-diazaspiro[4.5]dec-7-yl]-5H-pyrido[4,3-b]indole-4-carboxamide], 538 nM.
For `CN1CCC(c2ccc3c(c2)[nH]c2c(C(N)=O)cnc(N4CCCC5(CCNC5=O)C4)c23)CC1` (stereo not drawn) [Example 55, 7-(1-methylpiperidin-4-yl)-1-(1-oxo-2,7-diazaspiro[4.5]dec-7-yl)-5H-pyrido[4,3-b]indole-4-carboxamide], the IC50 is 1.3 nM.
Still for that read-out and setting: as for `CC(=O)N1CCC2(CCN(c3ncc(C(N)=O)c4[nH]c5ccccc5c34)CC2)C1` [Example 14, 1-(2-acetyl-2,8-diazaspiro[4.5]dec-8-yl)-5H-pyrido[4,3-b]indole-4-carboxamide], the figure is 26 nM; as for `NC(=O)c1cnc(N2CCCC3(CCNC3=O)C2)c2c1[nH]c1cc(C3CCNCC3)ccc12` (stereo in doubt) [Example 63, 1-[(5S)-1-oxo-2,7-diazaspiro[4.5]dec-7-yl]-7-piperidin-4-yl-5H-pyrido[4,3-b]indole-4-carboxamide], 6.3 nM.
Same read-out and setting: the result for `CN1CCCC2(CCCN(c3ncc(C(N)=O)c4[nH]c5ccccc5c34)C2)C1=O` (stereo not drawn) [Example 35, 1-(8-methyl-7-oxo-2,8-diazaspiro[5.5]undec-2-yl)-5H-pyrido[4,3-b]indole-4-carboxamide] reads 55.2 nM.
Still for that read-out and setting: as for `NC(=O)c1cnc(N2CCC[C@@]3(CCCN(c4ccc(F)cc4)C3=O)C2)c2c1[nH]c1ccc(C(=O)O)cc12` [Example 8, 4-carbamoyl-1-[(6R)-8-(4-fluorophenyl)-7-oxo-2,8-diazaspiro[5.5]undec-2-yl]-5H-pyrido[4,3-b]indole-8-carboxylic acid], the figure is 12.6 nM; as for `CN1C[C@@H](CO)[C@@]2(CCCN(c3ncc(C(N)=O)c4[nH]c5ccccc5c34)C2)C1=O` (racemic) [Example 92, trans-1-(4-(hydroxymethyl)-2-methyl-1-oxo-2,7-diazaspiro[4.5]decan-7-yl)-5H-pyrido[4,3-b]indole-4-carboxamide], 64 nM; as for `CC(=O)N1CCC2(C1)CN(c1ncc(C(N)=O)c3[nH]c4ccccc4c13)C2` [Example 27, 1-(6-acetyl-2,6-diazaspiro[3.4]oct-2-yl)-5H-pyrido[4,3-b]indole-4-carboxamide], 232 nM.
On to `NC(=O)c1cnc(N2CCC[C@@]3(C2)C(=O)NC[C@@H]3c2ccccc2)c2c1[nH]c1ccccc12` (single isomer, unassigned) [Example 88, 1-[(trans)-1-oxo-4-phenyl-2,7-diazaspiro[4.5]dec-7-yl]-5H-pyrido[4,3-b]indole-4-carboxamide], for which the IC50 was 77.8 nM.
Regarding `CN1CC[C@@]2(CCCN(c3ncc(C(N)=O)c4[nH]c5cc(-c6ccc(C(O)C(F)(F)F)cc6)ccc5c34)C2)C1=O` (stereo partly drawn) [Example 78, 1-[(5R)-2-methyl-1-oxo-2,7-diazaspiro[4.5]dec-7-yl]-7-[4-(2,2,2-trifluoro-1-hydroxyethyl)phenyl]-5H-pyrido[4,3-b]indole-4-carboxamide], the IC50 came out at 59.9 nM.
Same read-out and setting: the result for `CN1CCC(c2ccc3[nH]c4c(C(N)=O)cnc(N5CCCC6(CCNC6=O)C5)c4c3c2)CC1` (stereo not drawn) [Example 60, 8-(1-methylpiperidin-4-yl)-1-(1-oxo-2,7-diazaspiro[4.5]dec-7-yl)-5H-pyrido[4,3-b]indole-4-carboxamide] reads 76.9 nM; that for `NC(=O)c1cnc(N2CCCC3(CCNC3=O)C2)c2c1[nH]c1cc(C3CCNCC3)ccc12` (stereo in doubt) [Example 64, 1-[(5R)-1-oxo-2,7-diazaspiro[4.5]dec-7-yl]-7-piperidin-4-yl-5H-pyrido[4,3-b]indole-4-carboxamide], 0.63 nM.
For the compound `CNC(=O)N1CCC(c2ccc3c(c2)[nH]c2c(C(N)=O)cnc(N4CCCC5(CCNC5=O)C4)c23)CC1` (stereo not drawn) [Example 53, 7-[1-(methylcarbamoyl)piperidin-4-yl]-1-(1-oxo-2,7-diazaspiro[4.5]dec-7-yl)-5H-pyrido[4,3-b]indole-4-carboxamide], the IC50 amounted to 1.4 nM.
As to `CC(=O)N1CC2(CCCN(c3ncc(C(N)=O)c4[nH]c5ccccc5c34)C2)C1` [Example 29, 1-(2-acetyl-2,6-diazaspiro[3.5]non-6-yl)-5H-pyrido[4,3-b]indole-4-carboxamide], the half-maximal inhibitory concentration (IC50) was found to be 271 nM.
Same read-out and setting: the result for `NC(=O)c1cnc(N2CCC3(CCNC3=O)CC2)c2c1[nH]c1ccccc12` [Example 11, 1-(1-oxo-2,8-diazaspiro[4.5]dec-8-yl)-5H-pyrido[4,3-b]indole-4-carboxamide] reads 31.1 nM; that for `CC(=O)N1CCC(c2ccc3[nH]c4c(C(N)=O)cnc(N5CCCC6(CCNC6=O)C5)c4c3c2)CC1` (stereo not drawn) [Example 61, 8-(1-acetylpiperidin-4-yl)-1-(1-oxo-2,7-diazaspiro[4.5]dec-7-yl)-5H-pyrido[4,3-b]indole-4-carboxamide], 81.8 nM; that for `CC(C)(C)c1ccc(N2CCC3(CCCN(c4ncc(C(N)=O)c5[nH]c6ccccc6c45)C3)CC2=O)cc1` (stereo not drawn) [Example 38, 1-[9-(4-tert-butylphenyl)-8-oxo-2,9-diazaspiro[5.5]undec-2-yl]-5H-pyrido[4,3-b]indole-4-carboxamide], 420 nM.
Still for that read-out and setting: as for `CN1CC(CO)C2(CCCN(c3ncc(C(N)=O)c4[nH]c5ccccc5c34)C2)C1=O` (single isomer, unassigned) [Example 91, cis-1-(4-(hydroxymethyl)-2-methyl-1-oxo-2,7-diazaspiro[4.5]decan-7-yl)-5H-pyrido[4,3-b]indole-4-carboxamide], the figure is 1000 nM; as for `NC(=O)c1cnc(N2CC3(CCNC3)C2)c2c1[nH]c1ccccc12` [Example 26, 1-(2,6-diazaspiro[3.4]oct-2-yl)-5H-pyrido[4,3-b]indole-4-carboxamide], 160 nM; as for `CC(C)N1CCC(c2ccc3c(c2)[nH]c2c(C(N)=O)cnc(N4CCC[C@@]5(CCNC5=O)C4)c23)CC1` [Example 71, 7-[1-(1-methylethyl)piperidin-4-yl]-1-[(5R)-1-oxo-2,7-diazaspiro[4.5]dec-7-yl]-5H-pyrido[4,3-b]indole-4-carboxamide], 0.83 nM.
On the same count and under the same terms, as for `NC(=O)c1cnc(N2CCC3(CCCN(c4ccc(F)cc4)C3=O)C2)c2c1[nH]c1ccccc12` (stereo not drawn) [Example 33, 1-[7-(4-fluorophenyl)-6-oxo-2,7-diazaspiro[4.5]dec-2-yl]-5H-pyrido[4,3-b]indole-4-carboxamide], the figure is 212 nM.

The same assay, now with this note: BTK binding potency IC50 (nM), 50 pM hBTK, 2 μM biotin-A5-peptide, 25 μM ATP; 60 minute compound & enzyme incubation; 120 minutes reaction.
On to `NC(=O)c1cnc(N2CCCC3(CCNC3=O)C2)c2c1[nH]c1ccccc12` (stereo not drawn) [Example 34, 1-(1-oxo-2,7-diazaspiro[4.5]dec-7-yl)-5H-pyrido[4,3-b]indole-4-carboxamide], for which the IC50 was 17.2 nM.
